Laboratory results from patent publication US20080085889A1, “Amidomethyl-Substituted 1-(Carboxyalkyl) Cyclopentyl-Carbonylamino-Benzazepine-N-Acetic Acid Compounds, Process and Intermediate Products for Their Preparation and Pharmaceutical Compositions Containing Them” (SOLVAY PHARMACEUTICALS GmbH, priority 2003, published 2008).

Assays:
[1] = target: T1, soluble, human recombinant NEP (Homo sapiens, UniProt P08473); assay: In-vitro investigation of the NEP inhibitory action (fluorescence-quenched Big-ET-1 analogue, HPLC); type: biochemical
T1 construct: soluble, human recombinant NEP; purchased Prof; Crine, University of Montreal, Canada
T1 sequence (P08473 52-750 limits assumed): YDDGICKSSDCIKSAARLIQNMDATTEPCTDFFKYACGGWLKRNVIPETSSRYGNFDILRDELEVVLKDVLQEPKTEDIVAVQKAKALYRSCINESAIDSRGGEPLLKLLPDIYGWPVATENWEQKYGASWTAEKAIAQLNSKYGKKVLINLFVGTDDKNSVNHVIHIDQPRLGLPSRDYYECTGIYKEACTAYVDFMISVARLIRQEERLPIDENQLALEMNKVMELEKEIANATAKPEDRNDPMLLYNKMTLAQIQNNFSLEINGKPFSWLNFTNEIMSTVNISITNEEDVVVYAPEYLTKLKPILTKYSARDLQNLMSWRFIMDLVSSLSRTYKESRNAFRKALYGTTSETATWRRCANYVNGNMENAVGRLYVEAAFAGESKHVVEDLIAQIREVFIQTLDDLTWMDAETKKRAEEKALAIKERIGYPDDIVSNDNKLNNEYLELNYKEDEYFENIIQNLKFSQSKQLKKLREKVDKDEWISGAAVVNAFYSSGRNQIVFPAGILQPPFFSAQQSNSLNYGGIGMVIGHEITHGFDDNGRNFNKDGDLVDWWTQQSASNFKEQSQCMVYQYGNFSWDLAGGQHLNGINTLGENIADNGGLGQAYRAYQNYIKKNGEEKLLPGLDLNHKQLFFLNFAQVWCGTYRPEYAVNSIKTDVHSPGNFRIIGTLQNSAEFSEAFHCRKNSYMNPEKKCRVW
How it was run: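 Enzyme preincubated with test substance 15 min at 37° C, then incubated with fluorescence-quenched Mca peptide substrate 60 min at 37° C and stopped by heating to 95° C. Cleaved and intact peptide separated by reversed-phase HPLC; unquenched Mca peak area (ex 328/em 393 nm) gave % inhibition versus no-compound control, duplicates, IC50 derived.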

[2] = Plasma protein binding, equilibrium dialysis, rat plasma; type: in vitro ADME; details: rat plasma (10% for routine testing), 37° C., pH 7.4, 10% plasma (100% for low binders), read-out: % bound (rat plasma) (converted)
Experimental: Plasma protein binding of the test substances of Formula I was measured using a validated equilibrium dialysis method. The dialysis cells consisted of two halves separated by a semi-permeable membrane slightly tensioned in between. […] Before being used, the membranes were re-hydrated by soaking in water followed by the dialysis buffer. Plasma (10% for routine testing, and 100% for compounds found to have a low protein binding) was heated to 37° C. and adjusted to pH 7.4 before use. 5 μM test compound solutions (final dimethylsulfoxide concentration 0.5%) were prepared in isotonic phosphate buffer containing rat or human plasma. The plasma-containing solution was on one side of the membrane, and the plasma-free on the other. Incubations were performed overnight (10% plasma assay), or for 2 hours (100% plasma assay) in triplicate. The cells were mounted in a drive unit that rotated the cells and ensured a uniform equilibrium was obtained. The equilibrium was temperature controlled by the drive unit being immersed in a water bath at 37° C. At the end of the equilibration time, the cells were emptied. The solutions for each batch of compounds were combined into two groups (plasma-free and plasma-containing) then cassette analysed by LC-MS/MS using two sets of calibration standards for plasma-free (7 points) and plasma-containing solutions (6 points). The percentage of protein bound compound was calculated as follows: [formula] PC=sample concentration in protein containing side; PF=sample concentration in protein free side;

[3] = system: maximal SAP response to Big-ET; assay: In vivo i.v. potency (ID50) to inhibit maximal SAP response to Big-ET in anesthetized rats; set-up: species or system Rats (Sprague-Dawley); details: Rattus norvegicus, iv, dose at which the pressor effect of Big-ET was suppressed by 50%
Experimental: (§1) Rats (Sprague-Dawley, CRLD=Charles River) were anaesthetised with 1 ml/kg Rompun/Ketavet 1:1. A pressure transducer (Statham) was inserted into the carotid artery to measure blood pressure.
For intravenous testing, one jugular vein was cannulated for administering the substance, and the other for administering Big-ET-1. […] Five minutes later, 0.5 nmol/kg Big-ET-1 was infused over a period of one minute. SAP, DAP, and heart rate were measured before administration of the substance, then before administration of Big-ET, and subsequently every five minutes after Big-ET administration over a period of 30 minutes using the pressure transducer in known manner. The maximum Big-ET-induced increase in blood pressure was calculated from the measured values as the difference between the value measured at the moment of maximum development of the Big-ET action (typically after 5 min) and the value measured before Big-ET infusion. The dose at which the pressor effect of Big-ET was suppressed by 50% (ID50) was estimated from the inhibitory effects observed over the range of dosages tested (n>5 rats for each dose).
The intravenous potency of the test compounds of Formula I (given as ID50 values) to inhibit the maximal SAP response to Big ET in anesthetized rats is set forth in the following Table 3b: […]

[4] = system: maximal SAP response to Big-ET; assay: In vivo inhibition of maximal SAP response to Big-ET in anesthetized rats after oral administration; set-up: species or system Rats (Sprague-Dawley); details: oral by gavage, 100 μmol/kg, 1 h before Big-ET challenge; mean ± standard error; negative = inhibition
Experimental: as §1
For oral testing, the substances (or vehicle) were given by gavage at doses of 100 μmol/kg each, 1 h before the Big-ET challenge, and blood pressure and heart rate were monitored as described above.
The inhibition of maximal SAP response to Big-ET in anesthetized rats following oral administration of the test substances of Formula I is set forth in the following Table 3c: […]
Data given in table 3c as negative values indicate an inhibitory effect. Values are means from 3-6 independent series of experiments ±standard error.

IC50 [1] [nM]	fraction unbound at 5 μM [2]	Structure (SMILES)	ED50 [3] [µmol/kg]	% substance-related inhibition of the maximum Big-ET effect on SAP vs. control [4] [%]
17.9	0.31	CC(C)NC(=O)CC(CC1(C(=O)N[C@H]2CCc3ccccc3N(CC(=O)O)C2=O)CCCC1)C(=O)O (stereo in doubt) [Example 3, (2″rel1″)-2-{[(3S)-1-({[1-(carboxymethyl)-2-oxo-2,3,4,5-tetrahydro-1H-1-benzazepin-3-yl]amino}-carbonyl)cyclopentyl]methyl}-4-(isopropylamino)-4-oxobutyric acid]		
9	0.83	CN(C)CCCN(C)C(=O)CC(CC1(C(=O)NC2CCc3ccccc3N(CC(=O)O)C2=O)CCCC1)C(=O)O (stereo not drawn) [Example 64, 2-[(1-{[1-(carboxymethyl)-2-oxo-2,3,4,5-tetrahydro-1H-1-benzazepin-3-yl]carbamoyl}cyclopentyl)methyl]-4-{[3-(dimethylamino)propyl](methyl)amino}-4-oxobutanoic acid]	0.2	−53 ± 5
4	0.36	CCN(CCCCN)C(=O)CC(CC1(C(=O)NC2CCc3ccccc3N(CC(=O)O)C2=O)CCCC1)C(=O)O [Example 81, (2″rel1″)-4-[(4-aminobutyl)(ethyl)amino]-2-{[1-({[(3S)-1-(carboxymethyl)-2-oxo-2,3,4,5-tetrahydro-1H-1-benzazepin-3-yl]amino}carbonyl)cyclopentyl]methyl}-4-oxobutanoic acid]	0.05	
